Data as given in patent US20190169218A1, “AMPHIPATHIC COMPOUND HAVING NOVEL PENTA-SACCHARIDE HYDROPHILIC GROUP AND USE THEREOF” (Industry-University Cooperation Foundation Hanyang …, priority 2016, published 2019).

Key:
[1] = molecular target: T1, boron transporter (BOR1) BOR1-GFP fusion protein (Arabidopsis thaliana, UniProt Q8VYR7); experiment: structural (thermal) stability of solubilized BOR1-GFP by fluorescence-based size exclusion chromatography (FSEC); details: for structural stability of solubilized BOR1-GFP after heating (RFU, FSEC): heated at 40° C. for 10 minutes, 1 wt % compound
T1 construct: made in house; host or cells: Saccharomyces cerevisiae FGY217
Protocol: The ability of PSAs or PSEs to stabilize the structure of boron transporter (BOR1) was measured in an aqueous solution. That is, the BOR1 protein solubilized in each amphipathic compound was denatured by heating, and then structural stability of BOR1 was measured using fluorescence-based size exclusion chromatography (FSEC).
Specifically, Arabidopsis thaliana-derived BOR1 was expressed in the form of a fusion protein having a GFP tag at the C-terminus in Saccharomyces cerevisiae FGY217 cells. The cells were grown in an URA-medium supplemented with 0.1% glucose. 2% galactose was added to the cell culture to induce protein expression and the cells were cultured at 20° C. for 18 hours (see Drew, D. et al., Nat. Protoc. 2008, 3, 784-798.). After culture, the cells were harvested and used to obtain the cell membranes (see Leung, J. et al., Protein Expr. Purif. 2010, 72, 139-146.). Membranes containing BOR1-GFP fusion proteins were diluted to a final total protein concentration of 2.8 mg/mL in PBS (pH7.4) supplemented with 1 wt % DDM, 1 wt % PSAs (PSA-C9, PSA-C10 or PSA-C11) or 1 wt % PSEs (PSE-C9, PSE-C11 or PSE-C13). The diluted samples were incubated at 4° C. for 1 hour with gentle shaking, and insoluble substances were removed by centrifugation at 14,000 g for 1 hour at 4° C. Supernatants containing the dissolved protein samples were incubated for 10 minutes at the specified temperature (35, 40, 45 or 50° C.), and strongly agglutinated proteins were removed by centrifugation at 14,000 g for 10 minutes at 4° C. 200 μL aliquots were taken from the supernatant and injected into a Superose 6 10/300 column equilibrated with 20 mM Tris-HCl (pH 7.5), 150 mM NaCl and 0.03% DDM. Each elution fraction was collected from a retention volume of 6.4 mL (i.e., after 6.4 mL of solution had passed), and added to a well of a clear bottom 96-well plate at a volume of 200 μL. GFP fluorescence generated in each fraction was measured using an excitation wavelength of 470 nm and an emission wavelength of 512 nm.

[2] = molecular target: T2, Salmonella typhimurium melibiose permease (MelB) (Salmonella typhimurium, UniProt P30878); experiment: MelB extraction efficiency and thermal stability by SDS-PAGE and western immunoblotting; details: 1.5 wt %; for solubilized MelB remaining in solution: 90 minutes; for MelB extraction efficiency: 0° C., 90 minutes (similar results at 45° C.)
T2 construct: made in house; host or cells: DW2 cells (melB and lacZY), Salmonella typhimurium DW2; plasmid pK95AHB/WT MelBst/CH10
T2 sequence (P30878 whole entry): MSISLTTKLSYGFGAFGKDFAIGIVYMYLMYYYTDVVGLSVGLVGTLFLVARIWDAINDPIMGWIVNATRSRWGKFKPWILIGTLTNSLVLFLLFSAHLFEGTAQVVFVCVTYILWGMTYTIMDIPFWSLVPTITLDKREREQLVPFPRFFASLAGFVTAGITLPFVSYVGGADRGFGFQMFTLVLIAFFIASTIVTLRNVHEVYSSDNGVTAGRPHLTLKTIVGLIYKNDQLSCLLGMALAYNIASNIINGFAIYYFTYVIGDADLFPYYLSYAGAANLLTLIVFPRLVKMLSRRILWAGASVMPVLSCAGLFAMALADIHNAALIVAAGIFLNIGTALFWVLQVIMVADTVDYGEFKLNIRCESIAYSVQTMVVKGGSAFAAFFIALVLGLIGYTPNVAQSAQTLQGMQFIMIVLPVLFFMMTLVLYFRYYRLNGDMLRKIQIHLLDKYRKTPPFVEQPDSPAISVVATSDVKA
Protocol: The ability of PSAs or PSEs to extract (solubilize) MelBst (Salmonella typhimurium melibiose permease) proteins and stabilize the structures thereof was measured. MelB proteins were extracted using PSAs, PSEs or DDM, and the amount of the extracted proteins and structural stability thereof were quantitatively analyzed by SDS-PAGE and western immunoblotting. The protein extraction efficiency and thermally stabilizing ability of the amphipathic compounds were simultaneously evaluated by extracting MelB proteins at four temperatures (0, 45, 55 or 65° C.) for 90 minutes using the amphipathic compounds at a concentration of 1.5 wt %.
Specifically, according to the method described in the journal article (P. S. Chae, et al., Chemistry. 2013, 19, 15645-15651.) published by the present inventors, proteins (MelBst) were produced using a plasmid pK95AHB/WT MelBst/CH10 containing a gene construct encoding wild-type MelB having 10×His tags at the C-terminus and Salmonella typhimurium DW2 cells (melB and lacZY). According to the method described in the journal article (A. S. Ethayathulla et al., Nat. Commun. 2014, 5, 3009), cells were cultured and the cell membranes were obtained from the cultured cells. Protein analysis was performed using a Micro BCA kit (Thermo Scientific, Rockford, Ill.). To measure solubilization/stability, membrane samples (the final concentration of membrane proteins was 10 mg/mL) containing MelBst were mixed with a solubilization buffer solution (20 mM sodium phosphate, pH 7.5, 200 mM NaCl, 10% glycerol and 20 mM melibiose) containing DDM, PSAs (PSA-C11) or PSEs (PSE-C9, PSE-C11, PSE-C13) at a concentration of 1.5% (w/v). Extracts were incubated at four different temperatures (0, 45, 55 and 65° C.) for 90 minutes. Fractions were removed by ultracentrifugation at 355,590 g for 45 minutes using a Beckman Optima™ MAX ultracentrifuge equipped with a No. 4 TLA-100 rotor. 20 μg of proteins was separated using a 15% SDS-PAGE gel. Next, immunoblotting was performed using Penta-His-HRP antibodies (Qiagen, Germantown, Md.). After performing SDS-PAGE and immunoblotting, the amount of solubilized MelB was quantitated and expressed as a percentage of the amount of MelB measured in the control group.

Structure (SMILES): CCCCCCCCCCCCO[C@@H]1O[C@H](CO)[C@@H](O[C@H]2O[C@H](CO)[C@@H](O)[C@H](O)[C@H]2O)[C@H](O)[C@H]1O [DDM, n-dodecyl-β-D-maltopyranoside, reference compound]
- state of solubilized BOR1-GFP after heating ([1]; 35° C. for 10 minutes): retained the original state thereof
- state of solubilized BOR1-GFP after heating ([1]; 40 or 45° C. for 10 minutes): complete denaturation/aggregation occurred
- structural stability of solubilized BOR1-GFP after heating (RFU, FSEC) [1]: RFUs were relatively low due to denaturation after heating
- solubilized MelB remaining in solution ([2]; 55° C.): disappeared in the solution

Structure (SMILES): CCCCCCCCCCCC(CCCCCCCCCCC)CO[C@@H]1OC(CO[C@@H]2OC(CO)[C@@H](O)C(O)C2O)[C@@H](O[C@@H]2OC(CO)[C@@H](O)C(O)C2O)C(O[C@@H]2OC(CO)[C@@H](O)C(O)C2O)C1O[C@@H]1OC(CO)[C@@H](O)C(O)C1O (some centres unmarked) [PSA-C11]
- structural stability of solubilized BOR1-GFP after heating (RFU, FSEC) [1]: remarkably improved as compared to DDM and PSA-C9
- MelB extraction efficiency [2]: extracted at an efficiency similar to the efficiency observed in the case of DDM
- solubilized MelB remaining in solution ([2]; 55° C.): remained dissolved in the solution

Structure (SMILES): CCCCCCCCCCCOCC(COCCCCCCCCCCC)O[C@@H]1OC(CO[C@@H]2OC(CO)[C@@H](O)C(O)C2O)[C@@H](O[C@@H]2OC(CO)[C@@H](O)C(O)C2O)C(O[C@@H]2OC(CO)[C@@H](O)C(O)C2O)C1O[C@@H]1OC(CO)[C@@H](O)C(O)C1O (some centres unmarked) [PSE-C11]
- state of solubilized BOR1-GFP after heating ([1]; 40 or 45° C. for 10 minutes): maintained monodispersibility
- structural stability of solubilized BOR1-GFP after heating (RFU, FSEC) [1]: greatly improved compared to DDM
- MelB extraction efficiency [2]: extracted at an efficiency similar to the efficiency observed in the case of DDM
- solubilized MelB remaining in solution ([2]; 55° C.): remained dissolved in the solution
- solubilized MelB remaining in solution ([2]; 65° C.): a small amount of dissolved MelB was observed

Structure (SMILES): CCCCCCCCCCCCCOCC(COCCCCCCCCCCCCC)O[C@@H]1OC(CO[C@@H]2OC(CO)[C@@H](O)C(O)C2O)[C@@H](O[C@@H]2OC(CO)[C@@H](O)C(O)C2O)C(O[C@@H]2OC(CO)[C@@H](O)C(O)C2O)C1O[C@@H]1OC(CO)[C@@H](O)C(O)C1O (some centres unmarked) [PSE-C13]
- structural stability of solubilized BOR1-GFP after heating (RFU, FSEC) [1]: greatly improved compared to DDM
- solubilized MelB remaining in solution ([2]; 55° C.): remained dissolved in the solution
